Reference: patent publication US10807986B2, “Fused pyrimidine compound or salt thereof” (TAIHO PHARMACEUTICAL CO., LTD., priority 2016, dated 2020)

tested on: not given; assay: not given; details: mouse, microsomes, 0.5 h, 1 μM

| SMILES | Remaining (%) |
| --- | --- |
| C/C=C/c1ccc(NC(=O)c2c(OCC)n(C3(C)CC3)c3ncnc(N)c23)cc1 [Example 117, (E)-4-amino-6-ethoxy-7-(1-methylcyclopropyl)-N-(4-(prop-1-en-1-yl)phenyl)-7H-pyrrolo[2,3-d]pyrimidine-5-carboxamide] | 53 |

tested on: TT cells (human thyroid cancer cell line with RET activating mutation); assay: In vivo antitumor effect, mice subcutaneously implanted with TT cells; design: species or system BALB/cA Jcl-nu/nu male mice; details: 100 mg/kg/day oral for 14 days, day 15, Table 54
Method: Human thyroid cancer cell lines (TT) were subcutaneously implanted into the right frank of 6- to 7-week-old BALB/cA Jcl-nu/nu male mice. After about 2 to 3 weeks from the cell implantation, the length (mm) and the width (mm) of tumors found in mouse bodies were measured. […] The day on which the mice were divided into groups was determined to be the “grouping day” (day 0 or 1).
A control group was administered a solvent (0.5% HPMC/0.1N HCl).
To determine the index of the antitumor effect, TV of each drug-administrated group was measured on day 15, and the tumor volume on day 15 relative to the tumor volume on the grouping day (day 0 or 1) (relative tumor volume: RTV) and T/C (%) were calculated from the following equations, and the antitumor effect was evaluated. […] TV (mm^3)=(length×width^2)/2 RTV=(TV on day 15)/(TV on day 0 or day 1) T/C(%)=(the mean RTV of a test compound treatment group)/(the mean RTV of the control group)×100

| SMILES | T/C (%) | TV (mm^3) Day 15 Mean ± SE [mm^3] |
| --- | --- | --- |
| COCc1ccc(NC(=O)c2c(C#CCN3CCOCC3)n(C3(C)CC3)c3ncnc(N)c23)cc1 [Example 85, 4-amino-N-[4-(methoxymethyl)phenyl]-7-(1-methylcyclopropyl)-6-(3-morpholinoprop-1-yn-1-yl)-7H-pyrrolo[2,3-d]pyrimidine-5-carboxamide] | 23 | 139.42 |

same assay, conditions: 100 mg/kg/day oral for 14 days, day 15 relative to day 0, Table 54

| SMILES | RTV Day 15 Mean ± SE |
| --- | --- |
| COCc1ccc(NC(=O)c2c(C#CCN3CCOCC3)n(C3(C)CC3)c3ncnc(N)c23)cc1 [Example 85, 4-amino-N-[4-(methoxymethyl)phenyl]-7-(1-methylcyclopropyl)-6-(3-morpholinoprop-1-yn-1-yl)-7H-pyrrolo[2,3-d]pyrimidine-5-carboxamide] | 0.87 |

same assay, conditions: 100 mg/kg/day oral, grouping day (day 0), Table 54

| SMILES | TV (mm^3) Day 0 Mean ± SE [mm^3] |
| --- | --- |
| COCc1ccc(NC(=O)c2c(C#CCN3CCOCC3)n(C3(C)CC3)c3ncnc(N)c23)cc1 [Example 85, 4-amino-N-[4-(methoxymethyl)phenyl]-7-(1-methylcyclopropyl)-6-(3-morpholinoprop-1-yn-1-yl)-7H-pyrrolo[2,3-d]pyrimidine-5-carboxamide] | 169.45 |

tested on: not listed separately; assay: Evaluation of stability in liver microsome; details: mouse liver microsome 0.25 mg/mL, test compound 1 μM, 37° C., 30 minutes
Method: Solutions of the test compounds in DMSO/acetonitrile (the final concentration of each test compound was 1 μM, the final concentration of DMSO was 0.01%, and the final concentration of acetonitrile was 1%) were individually added to a liver microsome mixture solution (mouse liver microsome with a final concentration of 0.25 mg/mL, a potassium phosphate buffer with a final concentration of 100 mM, and magnesium chloride with a final concentration of 3 mM), and each mixture was pre-incubated at 37° C. for 5 minutes. […] After incubation at 37° C. for 30 minutes, a double amount of ethanol was added thereto to terminate the reaction, thereby obtaining post-reaction samples. A double amount of ethanol was added to each of the remaining mixture solutions, and a NADPH-generating system was further added thereto, thereby obtaining pre-reaction samples. The pre-reaction samples and post-reaction samples were centrifuged at 2000×g, and their supernatant was filtered through a glass filter. Each filtrate was then introduced into LC-MS/MS, and MS/MS peaks of the test compounds were detected. From the ratio of the post-reaction MS/MS peak to the pre-reaction MS/MS peak of the test compounds, the percentage of the remaining test compounds (remaining %) was calculated.

| SMILES | Remaining (%) |
| --- | --- |
| COCc1ccc(NC(=O)c2c(C#Cc3c(C)noc3C)n(C3(C)CC3)c3ncnc(N)c23)cc1 [Example 184, 4-amino-6-((3,5-dimethylisoxazol-4-yl)ethynyl)-N-(4-(methoxymethyl)phenyl)-7-(1-methylcyclopropyl)-7H-pyrrolo[2,3-d]pyrimidine-5-carboxamide] | 58 |
| COCc1ccc(NC(=O)c2c(C#CC3(O)CCOCC3)n(C3(C)CC3)c3ncnc(N)c23)cc1 [Example 185, 4-amino-6-((4-hydroxytetrahydro-2H-pyran4-yl)ethynyl)-N-(4-(methoxymethyl)phenyl)-7-(1-methylcyclopropyl)-7H-pyrrolo[2,3-d]pyrimidine-5-carboxamide] | 80 |
| COCc1ccc(NC(=O)c2c(C#CCCN3CCOCC3)n(C3(C)CC3)c3ncnc(N)c23)cc1 [Example 187, 4-amino-N-(4-(methoxymethyl)phenyl)-7-(1-methylcyclopropyl)-6-(4-morpholinobut-1-yn-1-yl)-7H-pyrrolo [2,3-d]pyrimidine-5-carboxamide] | 68 |
| COCc1ccc(NC(=O)c2c(C#CCC(C)O)n(C3(C)CC3)c3ncnc(N)c23)cc1 (stereo not drawn) [Example 188, 4-amino-6-(4-hydroxypent-1-yn-1-yl)-N-(4-(methoxymethyl)phenyl)-7-(1-methylcyclopropyl)-7H-pyrrolo[2,3-d]pyrimidine-5-carboxamide] | 68 |
| COCc1ccc(NC(=O)c2c(-c3ccc(F)nc3)n(C3(C)CC3)c3ncnc(N)c23)cc1 [Example 190, 4-amino-6-(6-fluoropyridin-3-yl)-N-(4-(methoxymethyl)phenyl)-7-(1-methylcyclopropyl)-7H-pyrrolo[2,3-d]pyrimidine-5-carboxamide] | 58 |
| COCc1ccc(NC(=O)c2c(C#Cc3cnc[nH]3)n(C3(C)CC3)c3ncnc(N)c23)cc1 [Example 191, 6-((1H-imidazol-5-yl)ethynyl)-4-amino-N-(4-(methoxymethyl)phenyl)-7-(1-methylcyclopropyl)-7H-pyrrolo[2,3-d]pyrimidine-5-carboxamide] | 53 |
| COCc1ccc(NC(=O)c2c(C#Cc3ccc(OC)nc3)n(C3(C)CC3)c3ncnc(N)c23)cc1 [Example 192, 4-amino-N-(4-(methoxymethyl)phenyl)-6-((6-methoxypyridin-3-yl)ethynyl)-7-(1-methylcyclopropyl)-7H-pyrrolo[2,3-d]pyrimidine-5-carboxamide] | 79 |
| COCc1ccc(NC(=O)c2c(C#Cc3cncs3)n(C3(C)CC3)c3ncnc(N)c23)cc1 [Example 193, 4-amino-N-[4-(methoxymethyl)phenyl]-7-(1-methylcyclopropyl)-6-(thiazol-5-ylethynyl)-7H-pyrrolo[2,3-d]pyrimidine-5-carboxamide] | 51 |
| COCc1ccc(NC(=O)c2c(-c3cncnc3)n(C3(C)CC3)c3ncnc(N)c23)cc1 [Example 194, 4-amino-N-(4-(methoxymethyl)phenyl)-7-(1-methylcyclopropyl)-6-(pyrimidin-5-yl)-7H-pyrrolo[2,3-d]pyrimidine-5-carboxamide] | 67 |
| COCc1ccc(NC(=O)c2c(C#Cc3cncc(C#N)c3)n(C3(C)CC3)c3ncnc(N)c23)cc1 [Example 195, 4-amino-6-((5-cyanopyridin-3-yl)ethynyl)-N-(4-(methoxymethyl)phenyl)-7-(1-methylcyclopropyl)-7H-pyrrolo[2,3-d]pyrimidine-5-carboxamide] | 70 |
| COCc1ccc(NC(=O)c2c(C#Cc3cncnc3)n(C3(C)CC3)c3ncnc(N)c23)cc1 [Example 196, 4-amino-N-(4-(methoxymethyl)phenyl)-7-(1-methylcyclopropyl)-6-(pyrimidin-5-ylethynyl)-7H-pyrrolo[2,3-d]pyrimidine-5-carboxamide] | 53 |
| COCCN(C)CC#Cc1c(C(=O)Nc2ccc(COC)cc2)c2c(N)ncnc2n1C1(C)CC1 [Example 197, 4-amino-6-(3-((2-methoxyethyl)(methyl)amino)prop-1-yn-1-yl)-N-(4-(methoxymethyl)phenyl)-7-(1-methylcyclopropyl)-7H-pyrrolo[2,3-d]pyrimidine-5-carboxamide] | 52 |
| COCc1ccc(NC(=O)c2c(C#CCN(C)C)n(C3(C)CC3)c3ncnc(N)c23)cc1 [Example 198, 4-amino-6-(3-(dimethylamino)prop-1-yn-1-yl)-N-(4-(methoxymethyl)phenyl)-7-(1-methylcyclopropyl)-7H-pyrrolo[2,3-d]pyrimidine-5-carboxamide] | 57 |
| COCc1ccc(NC(=O)c2c(C#CCC3CCCCC3)n(C3(C)CC3)c3ncnc(N)c23)cc1 [Example 199, 4-amino-6-(3-cyclohexylprop-1-yn-1-yl)-N-(4-(methoxymethyl)phenyl)-7-(1-methylcyclopropyl)-7H-pyrrolo[2,3-d]pyrimidine-5-carboxamide] | 80 |
| COCc1ccc(NC(=O)c2c(C3=CCOCC3)n(C3(C)CC3)c3ncnc(N)c23)cc1 [Example 203, 4-amino-6-(3,6-dihydro-2H-pyran-4-yl)-N-(4-(methoxymethyl)phenyl)-7-(1-methylcyclopropyl)-7H-pyrrolo[2,3-d]pyrimidine-5-carboxamide] | 68 |
| COCc1ccc(NC(=O)c2c(C(C)O)n(C3(C)CC3)c3ncnc(N)c23)cc1 (stereo not drawn) [Example 204, 4-amino-6-(1-hydroxyethyl)-N-(4-(methoxymethyl)phenyl)-7-(1-methylcyclopropyl)-7H-pyrrolo[2,3-d]pyrimidine-5-carboxamide] | 83 |
| COCc1ccc(NC(=O)c2c(C#CC3CCOCC3)n(C3(C)CC3)c3ncnc(N)c23)cc1F [Example 205, 4-amino-N-(3-fluoro-4-(methoxymethyl)phenyl)-7-(1-methylcyclopropyl)-6-((tetrahydro-2H-pyran-4-yl)ethynyl)-7H-pyrrolo[2,3-d]pyrimidine-5-carboxamide] | 58 |
| COCc1ccc(NC(=O)c2c(C#CCN3CCOCC3)n(C3(C)CC3)c3ncnc(N)c23)cc1F [Example 206, 4-amino-N-(3-fluoro-4-(methoxymethyl)phenyl)-7-(1-methylcyclopropyl)-6-(3-morpholinoprop-1-yn-1-yl)-7H-pyrrolo[2,3-d]pyrimidine-5-carboxamide] | 77 |
| CCc1c(C(=O)Nc2ccc(COC)cc2)c2c(N)ncnc2n1C1(C)CC1 [Example 207, 4-amino-6-ethyl-N-(4-(methoxymethyl)phenyl)-7-(1-methylcyclopropyl)-7H-pyrrolo[2,3-d]pyrimidine-5-carboxamide] | 72 |
